Experimental data reported in PubChem BioAssay (NCI).
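Growth conditions: 96-well plates. Treatment: test compound, 48 hours, 5 concentrations. Analysis: linear interpolation between bracketing concentrations; unreached endpoints set to highest concentration. GI50: concentration for 50% inhibition of growth. TGI is the concentration that stops growth completely.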

Columns and labels:
Test in all cases: NCI tumour cell line growth inhibition, 48 h
[1] = tested on: NCI/ADR-RES ovarian
[2] = tested on: DU-145 prostate
[3] = tested on: PC-3 prostate
[4] = tested on: T-47D breast
[5] = tested on: HS 578T breast

Compound	TGI [1]	TGI [2]	TGI [3]	TGI [4]	TGI [5]	GI50 [1]	GI50 [2]	GI50 [3]	GI50 [4]	GI50 [5]
COc1cc(C2c3cc4c(cc3OC(N3CCCC3)C2C)OCO4)cc(OC)c1OC (centres undefined)	0.531 µM	11.3 µM	> 62.5 µM	> 100 µM	2.3 µM					
COc1c(CCC[P+](c2ccccc2)(c2ccccc2)c2ccccc2)cc2c(c1OC)OCO2	> 100 µM	> 100 µM	22.4 µM	35.3 µM	13.4 µM	> 100 µM	3.56 µM	0.961 µM	0.419 µM	1.72 µM
C1CCSCCCCSCCCCSCCCCSC1	> 100 µM	> 100 µM	> 100 µM	> 100 µM	> 100 µM					
O=CNc1c(Cl)cc2c(c1Cl)Cc1cc([N+](=O)[O-])ccc1-2	38.3 µM	> 49.9 µM	> 100 µM	> 100 µM	14.4 µM	4.49 µM	7.72 µM	8.06 µM	5.49 µM	1.77 µM
Cc1ccc2c(ccc3c[n+]4c5ccccc5ccc4n32)c1	> 100 µM	12.3 µM	10.4 µM	3.59 µM	4.71 µM	> 100 µM	1.32 µM	0.946 µM	0.618 µM	0.959 µM
CCCCCn1c(=N)n(CC(O)COc2cccc(C)c2)c2ccccc21 (centres undefined)	27.1 µM	24 µM	16.3 µM	10.6 µM	24.8 µM	10.5 µM	11.4 µM	4 µM	3.33 µM	5.5 µM
O=C(Cn1ccc(=O)[nH]c1=O)Nc1ccc(C(=O)O)c(O)c1	> 100 µM	> 100 µM	> 100 µM	> 100 µM	> 100 µM					
COc1ccc(-c2ccc(/C=N/n3c(COc4ccc(Cl)cc4Cl)n[nH]c3=S)o2)c([N+](=O)[O-])c1	46.4 µM	> 100 µM	47.1 µM	> 100 µM	> 100 µM	19.8 µM	38.3 µM	19.4 µM	44 µM	40.8 µM
CN(C)/C=C/c1nnc([N+](=O)[O-])s1	37.7 µM	30.8 µM	22 µM	38.9 µM	42.6 µM					
COc1c2c(c3c(c1CCC(=O)O)OC(C)(C)C=C3)OC(C)(C)C=C2	> 100 µM	> 100 µM	> 100 µM	> 100 µM	> 100 µM					
COC1(C(=O)N[C@@H](C)c2ccc(-n3cc(F)cn3)nc2)CCC(c2nc(C)cc(Nc3cc(C)[nH]n3)n2)CC1 (some centres undefined)	17.7 µM	4.63 µM	32.7 µM	21.7 µM	1.31 µM	3.74 µM	1.8 µM	3.66 µM	2.17 µM	0.248 µM
COC(=O)/C=C/C=C(c1ccccc1)c1ccccc1	17 µM	52.8 µM	> 100 µM	> 100 µM	46 µM	3.12 µM	5.48 µM	4.67 µM	3.16 µM	8.65 µM
O=C(CC(=O)CC(O)(C(F)(F)F)C(F)(F)F)CC(O)(C(F)(F)F)C(F)(F)F	> 10 µM	> 10 µM		> 10 µM	> 10 µM					
CNC(=O)n1ccc2cc(Oc3ccnc(NC(=O)c4ccc(C5CCN(CCO)CC5)cc4)c3)c(OCCOC)cc21	42.4 µM	23.2 µM	26.2 µM	36 µM	7.37 µM	12.9 µM	11.2 µM	6.1 µM	11.8 µM	1.84 µM
COc1ccc(C(=O)/C=C/c2ccc(/C=C/c3cc(OC)c(OC)c(OC)c3)cc2)cc1	> 100 µM	> 100 µM	> 100 µM	> 100 µM	> 100 µM	5.46 µM	10.2 µM	5.65 µM	6.19 µM	9.11 µM
Nc1c(C(=O)Nc2cccc([N+](=O)[O-])c2)sc2nc3c(cc12)C(O)CCC3 (centres undefined)	> 100 µM	> 100 µM		> 100 µM	> 100 µM	4.72 µM	20.5 µM		6.59 µM	11 µM
COc1ccc2nc3cc([N+](=O)[O-])ccc3c(NCCCCCN(C)C)c2c1	13.5 µM	11.3 µM	1.75 µM	1.73 µM	4.66 µM	2.13 µM	0.286 µM		0.307 µM	0.376 µM

Compound	TGI [1]	TGI [2]	TGI [3]	TGI [4]	TGI [5]	GI50 [1]	GI50 [2]	GI50 [3]	GI50 [4]	GI50 [5]
CCCN=Cc1cc(Cc2ccc(O)c(C=NCCC)c2)ccc1O	59.6 µM	31.1 µM	5.89 µM	6.33 µM	92.2 µM					
Nc1ccn(Cc2ccc(C34CC5CC(CC(C5)C3)C4)c(O)c2)c(=O)n1	> 100 µM	> 100 µM		> 100 µM	> 100 µM	> 100 µM	> 100 µM		> 100 µM	14.4 µM
O=C1OC(=O)C(c2c[nH]c3ccccc23)=C1c1c[nH]c2ccccc12	> 25 µM	> 25 µM	> 25 µM	> 25 µM	> 25 µM	> 25 µM	> 25 µM	> 18 µM	> 25 µM	> 25 µM
CC1SC(c2c(Cl)cccc2Cl)N(NC(=O)c2[nH]c3ccc(F)cc3c2-c2ccccc2)C1=O (centres undefined)	4.8 µM	4.36 µM	4.46 µM	14 µM	4.38 µM	2.05 µM	1.92 µM	1.98 µM	2.61 µM	1.93 µM
COc1cc(Cl)cc(-c2nn(C(=O)NCCN3CCOCC3)cc2-c2ccncc2)c1	> 100 µM	57.6 µM	> 100 µM	> 100 µM	41 µM	2.87 µM	8.46 µM	4.24 µM	5.78 µM	6.38 µM
Cc1sc(C(=O)Nc2cc(C(=O)NCCCN(C)C)n(C)c2)cc1NC(=O)CCCN1C(=O)c2cccc3cccc(c23)C1=O	> 100 µM	> 100 µM	> 100 µM	> 100 µM	> 100 µM	> 100 µM	> 100 µM	> 100 µM	> 100 µM	> 100 µM
CC(C)(C)C#CC1=C(Br)C(=O)OC1	2.8 µM	3.31 µM	11.2 µM	66.8 µM	> 78.2 µM	0.426 µM	1.53 µM	2.39 µM	16.5 µM	> 26.9 µM
CC(C)(C)C[C@H]1NC(C(=O)NCC[C@H](O)CO)[C@H](c2cccc(Cl)c2)[C@@]12C(=O)Nc1cc(Cl)c(F)cc12 (some centres undefined)	> 100 µM	30.6 µM	34.7 µM	37.7 µM	60.4 µM	37 µM	16.1 µM	14.9 µM	16.7 µM	16 µM
CCN(Cc1ccc(F)c(F)c1)c1ccc(CO)c(Cl)c1	27.4 µM	38.2 µM	27.4 µM	0.667 µM	40 µM	11.4 µM	14.8 µM	12.3 µM	0.0977 µM	12.4 µM
C[C@H](Nc1ncnc2nc[nH]c12)c1cc2cccc(Cl)c2c(=O)n1-c1ccccc1	> 100 µM	> 100 µM	> 100 µM	> 43.5 µM	14.5 µM	> 100 µM	26.2 µM	2.39 µM	1.58 µM	0.631 µM
C=CCc1c2c(c(OC)c3ccoc13)C(=O)/C(=C/c1ccccc1OC)O2	10.8 µM	> 100 µM	> 100 µM	> 100 µM	> 100 µM	2.82 µM	3.19 µM	5.25 µM	4.34 µM	5.29 µM
CN(CCCN)CCCNc1nc2ccccc2c2[nH]c3ccccc3c12	10.8 µM	10.3 µM	1.28 µM	0.772 µM	0.334 µM	1.48 µM	0.3 µM	0.342 µM	0.283 µM	0.0765 µM
CCN1C(=O)N(CC)C2C1NN=c1s/c(=C\c3cccnc3)c(=O)n12 (centres undefined)	> 100 µM	> 48.7 µM	> 100 µM		> 100 µM	0.38 µM	0.412 µM	0.451 µM		0.44 µM
N#Cc1cnc2cc(OC[C@H](O)CO)c(NC(=O)CC3CSSC3)cc2c1Nc1ccc(OCc2cccc(F)c2)c(Cl)c1	5.1 µM	1.36 µM	0.451 µM	1.47 µM	1.69 µM	2.72 µM	0.637 µM	0.162 µM	0.575 µM	0.447 µM
Cc1occc1C(=S)Nc1ccc(Cl)c(COC(C)(C)C)c1	33.4 µM	46.9 µM	30.6 µM	26.9 µM	49.6 µM					
Nc1cc2cccc[n+]2c2cc(Cl)ccc12					51.4 µM		30.7 µM		6.83 µM	16.6 µM
COC(=O)[C@@H](C)C[C@H](Cc1ccccc1)NC(=O)c1nc([C@@H](C[C@H](C(C)C)N(C)C(=O)[C@@H](NC(=O)[C@H]2CCCCN2C)C(C)C)OC(C)=O)sc1C	> 16.7 µM	> 16.7 µM	> 16.7 µM		> 16.7 µM	0.0521 µM	< 0.00167 µM	< 0.00167 µM		0.0024 µM
